IC50 data for one compound are collected here from US5843449A, “Proteins and novel peptides derived from autoantigen for use in immunotherapy of autoimmune diseases” (Akzo Nobel N.V., priority 1996, dated 1998).

Where two headings read alike, the source gives them in different places. Residues, ends and D or L forms follow the SMILES beside them.

Test [1] deals with T1, DR4Dw4 (DRB1*0401) HLA-DR molecules (Homo sapiens, UniProt P01903+P01911, A100K/A169T/F76Y/I96L/K127E/L162R/M171V/N62H/P40V/Q125Y/R42H/S133A/S149N/S66Y/V115G/V209L/W38E).
T1 construct: endogenous in cells; host or cells: BSM, EBV-transformed B-cell line
The experiment in a line: HLA-DR peptide binding assay (competition with biotinylated marker peptide), DR4Dw4. The note with it: pH = 5, 50 nM biotin-spacer-IHA(307-319)F marker peptide.

The target of another test is DR4Dw14 HLA-DR molecules. The test is described as follows: HLA-DR peptide binding assay (competition with biotinylated marker peptide), DR4Dw14. Also noted: species or system human. Particulars: pH = 5, 50 nM biotin-spacer-IHA(307-319)F marker peptide.

By IC50 is commonly meant the point on the concentration scale where inhibition reaches its midpoint. `CC(C)C[C@H](NC(=O)[C@H](CCCCN)NC(=O)[C@H](CC(C)C)NC(=O)[C@@H](NC(=O)[C@H](CC(N)=O)NC(=O)[C@H](CCC(N)=O)NC(=O)[C@H](CCCCN)NC(=O)[C@@H](NC(=O)[C@H](Cc1ccccc1)NC(=O)[C@H](CCCCN)NC(=O)[C@@H]1CCCN1)C(C)C)[C@@H](C)O)C(=O)N[C@@H](C)C(=O)N[C@H](C(=O)O)[C@@H](C)O` [IHA(307-319)F, reference compound] (H-PKFVKQNTLKLAT-OH): the IC50 in test [1] (DOT Blot, densitometer, read-out: ^R IC50, DR4Dw4, DOT Blot) stood at 550 nM; in test [1] (SDS-PAGE, visual inspection, read-out: ^R IC50, DR4Dw4, SDS-PAGE), 300 nM; on DR4Dw14 HLA-DR molecules (DOT Blot, densitometer, read-out: ^R IC50, DR4Dw14, DOT Blot) it was 530 nM; at DR4Dw14 HLA-DR molecules (SDS-PAGE, visual inspection, read-out: ^R IC50, DR4Dw14, SDS-PAGE) it was 300 nM.
